Experimental data from patent publication US20110195929A1, “COMPOUNDS FOR THE TREATMENT OF FLAVIVIRAL INFECTIONS” (SUMMIT CORPORATION PLC, priority 2008, published 2011).
Like-named read-outs stand apart in the source and are kept apart here.

Experiments:
BVDV = BVDV plaque inhibition assay; type: cell-based, bovine diarrhoea virus (BVDV); settings: for IC50: Bovine viral diarrhea virus isolates and strains, in Bos taurus; for % untreated control: Example 5
Experimental: BVDV Plaque Assay: In the absence of a suitable cell culture system able to support replication of human HCV, bovine diarrhoea virus (BVDV) is an accepted cell culture model. HCV and BVDV share a significant degree of local protein homology, a common replication strategy and probably the same subcellular location for viral envelopment.
(§1) The materials and procedures were as described in Whitby et al. (2004) Antiviral Chemistry and Chemotherapy 15: 141-151. In brief, MDBK cells were seeded in 96 well plates and allowed to reach confluency. Monolayers were exposed to between 14 and 45 plaque forming units of BVDV and adsorption allowed to take place. Infected monolayers were then exposed to the test compound, medium added containing low gelling-point agarose and allowed to set. The plates were then incubated for 4 days post infection, fixed in 5% formalin and stained with 0.5% neutral red after removal of the agarose layer. Anti-viral activity was measured by determination of plaque inhibition and expressed as IC50 values. Castanospermine, a known viral inhibitor, was used as a positive control.
For these assays a confluent monolayer of MDBK cells is produced in a flat bottomed well of a tissue culture plate. The monolayer is infected with BVDV. Sufficient virus is added to eventually form approximately 20-30 plaques. After allowing approximately 1 hr for the virus to infect, the cells are washed and liquid agar is added and allowed to set as a thin layer over the cell surface (the ‘overlay’). The infected cells are then left for a period of days to allow the virus to replicate and cells to shed virus, detach or lyse. Cells in the immediate vicinity of the initial virus infection are therefore infected—localized by the agar layer.
The test compound is added at appropriate dilutions with the virus. An antiviral effect of the compound is scored by the reduction of plaque number or size. The concentration of compound required to produce a 50% (IC50) reduction of plaque number or size is noted. Controls of no compound added are included. A control of a known antiviral compound (castanospermine) is carried out to calibrate the antiviral activity.
Plaque Assay: The materials and procedures were as described in Whitby et al. (2004) Antiviral Chemistry and Chemotherapy 15: 141-151.
as §1, with “In” for “The materials and procedures were as described in Whitby et al. (2004) Antiviral Chemistry and Chemotherapy 15: 141-151. In”, “Castanospermine (Compound 104),” for “Castanospermine,”

α-D-glucosidase = experiment: Glycosidase inhibition: α-D-glucosidase (Bacillus); type: biochemical, Bacillus stearothermophilus; settings: 1 mg/ml; pH 6.0, 20° C
Experimental: (§2) Inhibition of the N-linked glycan trimming enzymes alpha-Glucosidases I and II or alpha-Mannosidases I and II are thought to be related to the anti-viral activity of castanospermine (Compound 104) and 1-deoxynojirimycin (Compound 193). […] All enzymes were purchased from Sigma, as were the appropriate p-nitrophenyl substrates. Assays were carried out in microtitre plates. Enzymes were assayed in 0.1M citric acid/0.2M di-sodium hydrogen phosphate (McIlvaine) buffers at the optimum pH for the enzyme. All assays were carried out at 20° C. For screening assays the incubation assay consisted of 10 μl of enzyme solution, 10 μl of inhibitor solution (made up in water at 5 mM) and 50 μl of the appropriate 5 mM p-nitrophenyl substrate (3.57 mM final conc.) made up in McIlvaine buffer at the optimum pH for the enzyme.
(§3) The reactions were stopped with 0.4M glycine (pH 10.4) during the exponential phase of the reaction, which was determined at the beginning of the assay using blanks with water, which were incubated for a range of time periods to measure the reaction rate using 5 mM substrate solution. Endpoint absorbances were read at 405 nm with a Bio-rad microtitre plate reader (Benchmark). Water was substituted for the inhibitors in the blanks.

α-D-galactosidase = molecular target: T1, α-D-galactosidase (Coffea arabica, UniProt Q42656); experiment: Glycosidase inhibition: α-D-galactosidase; type: biochemical, Green coffee beans (Coffea sp.); settings: 1 mg/ml; pH 6.5, 20° C
T1 construct: purchased Sigma
T1 sequence (Q42656 16-378): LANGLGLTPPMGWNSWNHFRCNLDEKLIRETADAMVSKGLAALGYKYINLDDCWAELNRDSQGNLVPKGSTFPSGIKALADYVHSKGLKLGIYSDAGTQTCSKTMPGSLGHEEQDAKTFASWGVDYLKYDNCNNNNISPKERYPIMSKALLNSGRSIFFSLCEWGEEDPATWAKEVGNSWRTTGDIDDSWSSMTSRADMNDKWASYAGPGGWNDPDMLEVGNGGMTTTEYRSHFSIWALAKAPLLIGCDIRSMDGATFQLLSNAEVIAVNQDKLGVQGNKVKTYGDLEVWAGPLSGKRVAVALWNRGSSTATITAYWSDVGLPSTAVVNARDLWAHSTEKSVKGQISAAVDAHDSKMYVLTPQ
Experimental: as §2, §3

α-L-fucosidase = molecular target: T2, α-L-fucosidase (Bos taurus, UniProt Q2KIM0); experiment: Glycosidase inhibition: α-L-fucosidase; type: biochemical, Bovine kidney; settings: 1 mg/ml; pH 5.5, 20° C
T2 construct: purchased Sigma; host or cells: bovine kidney
T2 sequence (Q2KIM0 23-468): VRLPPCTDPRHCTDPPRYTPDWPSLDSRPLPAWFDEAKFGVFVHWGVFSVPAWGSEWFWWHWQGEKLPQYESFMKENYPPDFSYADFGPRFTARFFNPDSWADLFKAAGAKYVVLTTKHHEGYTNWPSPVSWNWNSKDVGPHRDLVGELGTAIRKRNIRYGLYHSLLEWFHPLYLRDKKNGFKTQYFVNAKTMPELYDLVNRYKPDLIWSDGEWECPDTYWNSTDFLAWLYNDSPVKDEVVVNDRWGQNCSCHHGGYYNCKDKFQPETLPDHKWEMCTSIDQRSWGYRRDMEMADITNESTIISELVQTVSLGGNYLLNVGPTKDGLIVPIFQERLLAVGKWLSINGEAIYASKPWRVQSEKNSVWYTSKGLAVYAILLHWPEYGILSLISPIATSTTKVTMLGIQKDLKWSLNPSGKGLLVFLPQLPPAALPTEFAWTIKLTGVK
Experimental: All enzymes were purchased from Sigma, as were the appropriate p-nitrophenyl substrates. Assays were carried out in microtitre plates. Enzymes were assayed in 0.1M citric acid/0.2M di-sodium hydrogen phosphate (McIlvaine) buffers at the optimum pH for the enzyme. All assays were carried out at 20° C. For screening assays the incubation assay consisted of 10 μl of enzyme solution, 10 μl of inhibitor solution (made up in water at 5 mM) and 50 μl of the appropriate 5 mM p-nitrophenyl substrate (3.57 mM final conc.) made up in McIlvaine buffer at the optimum pH for the enzyme.
as §3

[1] = MDBK, 96 h, read-out: IC50 (μg/ml)
[2] = Examples 1-3, 50% reduction of plaque number or size, MDBK cells, read-out: IC50 (μg/ml)

| Structure (SMILES) | IC50 (BVDV; MDBK, 96 h, read-out: IC50) | IC50 (BVDV; [1]) | IC50 (BVDV; [2]) | % untreated control (BVDV; dose 6.0 μg/ml (0.03 mM)) | % untreated control (BVDV; dose 12.5 μg/ml (0.07 mM)) | % untreated control (BVDV; dose 25.0 μg/ml (0.13 mM)) | % untreated control (BVDV; dose 50.0 μg/ml (0.26 mM)) | % untreated control (BVDV; dose 100.0 μg/ml (0.53 mM)) | % inhibition α-gluc (Bacillus) (α-D-glucosidase) | inhibition at 1000 µg/mL (α-D-galactosidase) | inhibition at 1000 µg/mL (α-L-fucosidase) | % untreated control (BVDV; dose 32 μg/ml (0.17 mM)) | % untreated control (BVDV; dose 63 μg/ml (0.33 mM)) | % untreated control (BVDV; dose 125 μg/ml (0.65 mM)) | % untreated control (BVDV; dose 250 μg/ml (1.30 mM)) | % untreated control (BVDV; dose 500 μg/ml (2.60 mM)) |
| --- | --- | --- | --- | --- | --- | --- | --- | --- | --- | --- | --- | --- | --- | --- | --- | --- |
| O[C@H]1[C@H](O)[C@@H](O)CN2CC[C@H](O)[C@H]12 [Compound 104, Castanospermine, reference compound] | 120 µM | 22.5 µg/mL | 15.6 µg/mL | 98% | 67% | 46% | 12% | 1.1% | 0% | 0% | 0% | – | – | – | – | – |
| CC[C@@H]1N[C@@H](CO)[C@H](O)[C@@H](O)[C@@H]1O [Compound 23, (2S,3R,4S,5S,6S)-2-ethyl-6-(hydroxymethyl)piperidine-3,4,5-triol] | 420 µM | 80 µg/mL | – | – | – | – | – | – | 0% | 0% | 0% | 83% | 56% | 47% | 35% | 22% |
| OC[C@@H]1NC[C@H](O)[C@@H]1O [Compound 167, (2S,3R,4S)-2-(hydroxymethyl)pyrrolidine-3,4-diol] | – | – | 57.6 µg/mL | – | – | – | – | – | 35% | 32% | 28% | – | – | – | – | – |
| CC(O)[C@H](O)[C@H]1N[C@H](CO)[C@@H](O)[C@@H]1O (stereo partly drawn) [Compound 63, (2R,3R,4R,5R)-2-((1R)-1,2-dihydroxypropyl)-5-(hydroxymethyl)pyrrolidine-3,4-diol] | – | – | 87.2 µg/mL | – | – | – | – | – | 36% | 0% | 0% | – | – | – | – | – |
| CC[C@@H](O)[C@H]1N[C@H](CO)[C@@H](O)[C@@H]1O [Compound 62, (2R,3R,4R,5R)-2-(hydroxymethyl)-5-((R)-1-hydroxypropyl)pyrrolidine-3,4-diol] | – | – | 16.7 µg/mL | – | – | – | – | – | 65% | 0% | 0% | – | – | – | – | – |
